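Interpolation was linear, between the two tested concentrations surrounding the appropriate level; five concentrations were tested over 48 hours in 96-well plates. Here, GI50 denotes the concentration required for 50% inhibition of growth.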 Activity calls are given as the source filed them. No stated cut-off is given here; in the data, active = GI50 up to about 1.1 µM and inactive = higher.

Among the test systems are SK-MEL-5; A549; HOP-92; HCT-116; K562; DU-145; A498; SF-539; MDA-MB-435; UACC-257; OVCAR-4; NCI-H522; EKVX; HOP-62; OVCAR-5; OVCAR-3; NCI-H226; NCI/ADR-RES; COLO 205; HL-60.
Assay in all cases: inhibition of tumour cell growth, NCI panel, 48 h

On to `C=CCCCC1CCCNC1=S` (stereo not drawn), for which the GI50 in the assay on SK-MEL-5, with A549, with HOP-92, in the assay on HCT-116, with K562 and in the assay on DU-145 was > 100 µM (inactive) each time. Moreover, the GI50 in the assay on A498, in the assay with SF-539, in the assay on MDA-MB-435, in the assay with UACC-257, in the assay on OVCAR-4 and in the assay with NCI-H522 was > 100 µM (inactive) each time. In addition, the GI50 with EKVX, in the assay with HOP-62, in the assay with OVCAR-5, in the assay on OVCAR-3 and in the assay on NCI-H226 was > 100 µM (inactive) throughout.

As for `CC(=O)c1ccc2c(c1)c1c(C)c3c[n+](C)ccc3c(C)c1n2C`, the GI50 in the assay with SK-MEL-5 was 4.73 µM (inactive); with A549 it was 13.9 µM (inactive); in the assay on NCI/ADR-RES, 8.55 µM (inactive); with HOP-92 it was 11.8 µM (inactive); in the assay with HCT-116, 2.29 µM (inactive); in the assay with K562 it was 14.8 µM (inactive). Moreover, the GI50 was 9.57 µM (inactive) with COLO 205; 6.41 µM (inactive) in the assay with A498; 2.37 µM (inactive) in the assay on SF-539; 6.35 µM (inactive) in the assay on UACC-257; 4.85 µM (inactive) with OVCAR-4; 13.7 µM (inactive) with NCI-H522. The GI50 in the assay on HL-60 is 8.75 µM (inactive); in the assay with EKVX, 33.3 µM (inactive); with HOP-62 it was 7.36 µM (inactive); with OVCAR-5 it was 28.9 µM (inactive); in the assay on OVCAR-3, 12 µM (inactive); in the assay on NCI-H226, 2.82 µM (inactive).

For the compound `CSc1n[n+](C)cc(N)c1N`, the GI50 in the assay on SK-MEL-5 is > 100 µM (inactive); in the assay with A549, > 100 µM (inactive); in the assay with NCI/ADR-RES, > 100 µM (inactive); with HOP-92, 17.8 µM (inactive); in the assay on HCT-116, > 100 µM (inactive); with K562 it was 39 µM (inactive). For the same compound, the GI50 in the assay on COLO 205 was > 100 µM (inactive); with A498 it was > 100 µM (inactive); in the assay on SF-539 it was > 100 µM (inactive); in the assay with MDA-MB-435, > 100 µM (inactive); in the assay with UACC-257 it was 52 µM (inactive); in the assay with OVCAR-4, > 100 µM (inactive). The GI50 was > 100 µM (inactive) in the assay on NCI-H522; 51.9 µM (inactive) with HL-60; > 100 µM (inactive) in the assay on EKVX; > 100 µM (inactive) in the assay with HOP-62; > 100 µM (inactive) in the assay with OVCAR-5; > 100 µM (inactive) in the assay on OVCAR-3. In addition, the GI50 in the assay with NCI-H226 was > 100 µM (inactive).

Consider `CCOC(=O)c1sc2nc(SC)nc3c2c1NC(=O)CN3c1ccc(F)cc1`, for which the GI50 in the assay with SK-MEL-5 was 46.3 µM (inactive); in the assay with A549 it was 18.6 µM (inactive); in the assay with HOP-92, 31.8 µM (inactive); in the assay with HCT-116 it was 26.4 µM (inactive); in the assay with K562, 77.6 µM (inactive); with DU-145 it was 40.4 µM (inactive). In addition, the GI50 in the assay on COLO 205 is 68.9 µM (inactive); with A498 it was 47.6 µM (inactive); with SF-539 it was 15.9 µM (inactive); in the assay with MDA-MB-435, 32.3 µM (inactive); in the assay on UACC-257, 68.7 µM (inactive); in the assay on OVCAR-4 it was 21.4 µM (inactive). Moreover, the GI50 is 71.9 µM (inactive) with NCI-H522; 98.6 µM (inactive) with HL-60; 47.4 µM (inactive) in the assay with EKVX; 15.7 µM (inactive) with HOP-62; 41.7 µM (inactive) in the assay on OVCAR-5; 26.4 µM (inactive) in the assay with OVCAR-3. For the same compound, the GI50 in the assay on NCI-H226 was 41.7 µM (inactive).

`Nc1ccc(/N=N/c2ccc(/C=C/c3ccc(/N=N/c4ccc(N)c5ccc(S(=O)(=O)O)cc45)cc3S(=O)(=O)O)c(S(=O)(=O)O)c2)c2cc(S(=O)(=O)O)ccc12`: the GI50 in the assay on SK-MEL-5 was > 100 µM (inactive); in the assay on A549 it was > 100 µM (inactive); in the assay with NCI/ADR-RES it was > 100 µM (inactive); with HOP-92, 88.1 µM (inactive); with HCT-116, > 100 µM (inactive); with K562, > 100 µM (inactive). For the same compound, the GI50 in the assay on COLO 205, with A498, in the assay on SF-539, in the assay on UACC-257, in the assay with OVCAR-4 and with NCI-H522 was > 100 µM (inactive) throughout. For the same compound, the GI50 in the assay on HL-60 was > 100 µM (inactive); in the assay with EKVX it was > 100 µM (inactive); in the assay on HOP-62, > 100 µM (inactive); with OVCAR-5, > 100 µM (inactive); in the assay with OVCAR-3, > 100 µM (inactive); in the assay on NCI-H226, > 71.1 µM (inactive).

`CCC(C)NC1=NCC(C)S1` (stereo not drawn): the GI50 in the assay with SK-MEL-5, in the assay with A549, in the assay on HOP-92, with HCT-116, with K562 and in the assay with DU-145 was > 100 µM (inactive) each time. Further, the GI50 in the assay with COLO 205, in the assay with A498, with SF-539, with MDA-MB-435, in the assay with UACC-257 and in the assay on NCI-H522 was > 100 µM (inactive) in each case. Also, the GI50 with HL-60, in the assay with EKVX, in the assay with HOP-62, in the assay on OVCAR-5, in the assay on OVCAR-3 and with NCI-H226 was > 100 µM (inactive) throughout.

On to `C=C1C(=O)OCC2C(C(=O)O)=CC3C(C)C(C)=CC123` (stereo not drawn), for which the GI50 in the assay with SK-MEL-5 is 9.31 µM (inactive); in the assay with A549 it was 20.7 µM (inactive); in the assay with NCI/ADR-RES it was 8.26 µM (inactive); in the assay with HOP-92, 10.6 µM (inactive); in the assay on HCT-116, 9.48 µM (inactive); in the assay on K562 it was 10.2 µM (inactive). For the same compound, the GI50 in the assay on COLO 205 was 10.6 µM (inactive); with A498 it was 7.8 µM (inactive); in the assay on SF-539 it was 8.51 µM (inactive); in the assay on UACC-257 it was 16.7 µM (inactive); with OVCAR-4, 8.32 µM (inactive); in the assay on NCI-H522 it was 2.31 µM (inactive). Moreover, the GI50 in the assay with HL-60 is 9.33 µM (inactive); in the assay on EKVX, 21.7 µM (inactive); with HOP-62, 12.2 µM (inactive); in the assay with OVCAR-5, 27.5 µM (inactive); with OVCAR-3, 12.4 µM (inactive); in the assay on NCI-H226, 19.1 µM (inactive).

As to `N#Cc1c(N)nc(Sc2ccccc2N)c(C#N)c1-c1ccccc1`, the GI50 was 19.4 µM (inactive) in the assay on SK-MEL-5; 19.4 µM (inactive) in the assay on A549; 11.5 µM (inactive) in the assay on NCI/ADR-RES; 24.5 µM (inactive) with HOP-92; 15.7 µM (inactive) with HCT-116; 9.53 µM (inactive) in the assay on K562. The GI50 is 14.8 µM (inactive) in the assay with DU-145; 35.7 µM (inactive) with COLO 205; 26.9 µM (inactive) in the assay with SF-539; 23.6 µM (inactive) in the assay on MDA-MB-435; 24.9 µM (inactive) in the assay with UACC-257; 15.9 µM (inactive) in the assay with OVCAR-4. Besides, the GI50 in the assay on HL-60 was 0.141 µM (active); in the assay on EKVX it was 16.2 µM (inactive); in the assay on HOP-62, 22.1 µM (inactive); with OVCAR-5 it was 46.3 µM (inactive); in the assay with NCI-H226, 47.2 µM (inactive).

With `CN(C)CC(CC1=C(CC(CN(C)C)N(C)C)CCC1)N(C)C` (stereo not drawn), the GI50 in the assay on SK-MEL-5, in the assay on A549, in the assay with NCI/ADR-RES, with HOP-92, in the assay on HCT-116 and in the assay on K562 was > 100 µM (inactive) throughout. For the same compound, the GI50 in the assay on COLO 205, in the assay on A498, in the assay with SF-539, in the assay on UACC-257, in the assay with OVCAR-4 and in the assay with NCI-H522 was > 100 µM (inactive) throughout. In addition, the GI50 in the assay on HL-60, with EKVX, with HOP-62, with OVCAR-5, in the assay with OVCAR-3 and in the assay with NCI-H226 was > 100 µM (inactive) throughout.

With `ClC1=C(Cc2ccccc2)Cc2ccc3c(c21)CCC3`, the GI50 in the assay with SK-MEL-5 was 20.8 µM (inactive); in the assay with A549 it was 33.6 µM (inactive); in the assay on HOP-92 it was 99.8 µM (inactive); with HCT-116, 28.3 µM (inactive); in the assay on K562, 31.1 µM (inactive); in the assay on DU-145, 48.5 µM (inactive). The GI50 is 13.4 µM (inactive) in the assay on COLO 205; 74.3 µM (inactive) in the assay with SF-539; 28 µM (inactive) with MDA-MB-435; 23.1 µM (inactive) in the assay with UACC-257; 9.23 µM (inactive) with OVCAR-4; 17.7 µM (inactive) in the assay on NCI-H522. Also, the GI50 in the assay with HL-60 is 19.7 µM (inactive); in the assay with EKVX it was 39.3 µM (inactive); with HOP-62, 34.1 µM (inactive); in the assay on OVCAR-5, 61.2 µM (inactive); in the assay with OVCAR-3 it was 36.4 µM (inactive); in the assay with NCI-H226, 23 µM (inactive).

Turning to `CN(C)C(=O)/C=C/c1c[nH]c(=O)[nH]c1=O`, the GI50 in the assay on SK-MEL-5, with A549, in the assay on NCI/ADR-RES, in the assay with HOP-92, in the assay with HCT-116 and in the assay on K562 was > 500 µM (inactive) each time. Further, the GI50 in the assay on COLO 205, in the assay with A498, with SF-539, with UACC-257, with OVCAR-4 and in the assay on NCI-H522 was > 500 µM (inactive) in each case. For the same compound, the GI50 with HL-60 is 296 µM (inactive); in the assay with EKVX, > 281 µM (inactive); in the assay on HOP-62, > 500 µM (inactive); in the assay on OVCAR-5, > 500 µM (inactive); with OVCAR-3, > 500 µM (inactive); in the assay on NCI-H226, > 500 µM (inactive).

The record behind these values is ChEMBL document CHEMBL1201862, “PubChem BioAssay data set” (2004).
